{
  "source": "ChEMBL document CHEMBL5723379",
  "about": "“Affinity On-target Cellular Literature for EUbOPEN Chemogenomic Library” (2024)",
  "set-up_in_all_cases": "mode of action Inhibitor, recommended concentration 1 uM",
  "key": {"[1]": {"biological_target": "Na(+)/citrate cotransporter (Homo sapiens, UniProt Q86YT5)", "sequence (Q86YT5 whole entry)": "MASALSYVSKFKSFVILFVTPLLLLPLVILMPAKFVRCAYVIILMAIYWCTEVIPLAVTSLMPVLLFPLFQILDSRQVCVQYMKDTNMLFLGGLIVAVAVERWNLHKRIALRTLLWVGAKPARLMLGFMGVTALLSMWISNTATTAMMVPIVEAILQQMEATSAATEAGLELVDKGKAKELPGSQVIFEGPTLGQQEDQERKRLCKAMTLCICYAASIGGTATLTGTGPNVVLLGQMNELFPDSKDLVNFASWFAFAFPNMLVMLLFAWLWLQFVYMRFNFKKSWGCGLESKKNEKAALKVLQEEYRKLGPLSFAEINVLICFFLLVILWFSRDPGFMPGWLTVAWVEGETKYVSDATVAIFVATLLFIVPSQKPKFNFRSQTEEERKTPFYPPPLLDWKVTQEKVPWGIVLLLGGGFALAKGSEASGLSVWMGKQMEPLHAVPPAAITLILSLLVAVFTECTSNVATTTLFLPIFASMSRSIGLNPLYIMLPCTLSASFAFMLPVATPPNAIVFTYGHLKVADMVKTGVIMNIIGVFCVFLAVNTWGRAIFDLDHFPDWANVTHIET", "assay": "Affinity On-target Cellular interaction: (Radiolabelled uptake assay with […], HEK293 cells) EUB0002721a SLC13A5", "assay_type": "functional, cell-based"}, "Acid ceramidase [2]": {"biological_target": "T1, Acid ceramidase (Homo sapiens, UniProt Q13510)", "T1 sequence (Q13510 22-142 limits assumed)": "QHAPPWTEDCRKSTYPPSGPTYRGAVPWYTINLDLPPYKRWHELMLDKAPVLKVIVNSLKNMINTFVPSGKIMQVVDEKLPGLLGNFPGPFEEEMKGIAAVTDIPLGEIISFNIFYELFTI", "T1 sequence (Q13510 143-395 limits assumed)": "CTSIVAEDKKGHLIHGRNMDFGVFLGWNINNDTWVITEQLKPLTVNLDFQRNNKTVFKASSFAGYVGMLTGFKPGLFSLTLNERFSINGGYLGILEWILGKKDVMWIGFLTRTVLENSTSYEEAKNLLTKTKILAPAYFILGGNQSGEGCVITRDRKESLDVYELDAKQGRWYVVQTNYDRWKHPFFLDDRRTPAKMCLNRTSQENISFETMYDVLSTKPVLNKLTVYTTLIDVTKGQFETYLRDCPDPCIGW", "assay": "Affinity On-target Cellular interaction: (Inhibition of ASAH1 in A375 cell lysates overexpressing ASAH1) EUB0002723a ASAH1", "assay_type": "functional, subcellular, A-375"}, "[3]": {"biological_target": "Sodium/hydrogen exchanger 1 (Homo sapiens, UniProt P19634)", "sequence (P19634 whole entry)": "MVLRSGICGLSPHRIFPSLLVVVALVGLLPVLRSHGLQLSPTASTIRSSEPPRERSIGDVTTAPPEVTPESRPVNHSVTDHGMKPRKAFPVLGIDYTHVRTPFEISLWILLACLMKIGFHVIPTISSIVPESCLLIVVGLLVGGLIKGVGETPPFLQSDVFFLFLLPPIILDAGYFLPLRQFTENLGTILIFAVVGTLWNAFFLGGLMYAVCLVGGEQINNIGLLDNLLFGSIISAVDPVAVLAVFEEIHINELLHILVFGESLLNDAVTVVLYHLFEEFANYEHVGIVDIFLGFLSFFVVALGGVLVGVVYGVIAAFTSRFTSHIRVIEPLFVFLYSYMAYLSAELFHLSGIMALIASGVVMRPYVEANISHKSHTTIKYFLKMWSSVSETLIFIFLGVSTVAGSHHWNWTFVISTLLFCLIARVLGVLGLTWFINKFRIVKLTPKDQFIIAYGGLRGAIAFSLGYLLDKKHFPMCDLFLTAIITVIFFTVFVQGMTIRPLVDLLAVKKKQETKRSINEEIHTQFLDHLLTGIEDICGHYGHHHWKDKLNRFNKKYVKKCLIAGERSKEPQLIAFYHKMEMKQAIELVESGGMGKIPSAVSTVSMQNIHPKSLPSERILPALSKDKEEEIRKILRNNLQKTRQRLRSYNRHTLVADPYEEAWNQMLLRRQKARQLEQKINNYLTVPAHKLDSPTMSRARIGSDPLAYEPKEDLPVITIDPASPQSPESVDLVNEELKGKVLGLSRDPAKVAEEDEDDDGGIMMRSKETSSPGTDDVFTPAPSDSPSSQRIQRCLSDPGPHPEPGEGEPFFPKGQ", "assay": "Affinity On-target Cellular interaction: ([Na+]uptake assay, PS-120 fibroblasts) EUB0002781aCl SLC9A1", "assay_type": "functional, cell-based, PS120"}, "[4]": {"biological_target": "Monocarboxylate transporter 8 (Homo sapiens, UniProt P36021)", "sequence (P36021 whole entry)": "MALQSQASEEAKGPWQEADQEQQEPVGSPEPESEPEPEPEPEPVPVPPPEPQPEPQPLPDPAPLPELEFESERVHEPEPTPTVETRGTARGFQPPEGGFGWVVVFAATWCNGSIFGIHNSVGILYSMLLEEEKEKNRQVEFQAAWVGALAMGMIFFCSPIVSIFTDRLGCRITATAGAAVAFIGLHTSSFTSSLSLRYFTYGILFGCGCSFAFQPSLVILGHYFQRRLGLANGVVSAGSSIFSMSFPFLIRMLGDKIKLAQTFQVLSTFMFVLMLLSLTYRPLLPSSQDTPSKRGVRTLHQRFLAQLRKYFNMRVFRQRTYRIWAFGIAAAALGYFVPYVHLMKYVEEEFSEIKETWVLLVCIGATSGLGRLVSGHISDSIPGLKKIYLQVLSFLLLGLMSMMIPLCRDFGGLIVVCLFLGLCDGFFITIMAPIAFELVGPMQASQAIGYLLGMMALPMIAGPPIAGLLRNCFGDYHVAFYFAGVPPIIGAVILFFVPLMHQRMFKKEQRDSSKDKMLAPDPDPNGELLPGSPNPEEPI", "assay": "Affinity On-target Cellular interaction: (Inhibition of radiolabelled [125I]T3 uptake by target expressed in MDCK1 cells) EUB0002712a SLC16A2", "assay_type": "functional, cell-based, MDCK-I"}, "Acid ceramidase [5]": {"biological_target": "T1, Acid ceramidase", "assay": "Affinity On-target Cellular interaction: (Inhibition of ASAH1 in A375 cell lysates overexpressing ASAH1) EUB0002722a ASAH1", "assay_type": "functional, subcellular, A-375"}, "Dipeptidyl peptidase 2 [6]": {"biological_target": "T2, Dipeptidyl peptidase 2 (Homo sapiens, UniProt Q9UHL4)", "assay": "(§1) Affinity On-target Cellular interaction: (inhibition of fluorogenic substrate cleavage, U937 cell) EUB0002750aCl DPP7", "assay_type": "functional, cell-based, U-937"}, "Dipeptidyl peptidase 2 [7]": {"biological_target": "T2, Dipeptidyl peptidase 2", "assay": "as §1", "assay_type": "functional, cell-based, U-937", "remark": "listed apart in the source"}, "Zinc transporter SLC39A7": {"biological_target": "Zinc transporter SLC39A7 (Homo sapiens, UniProt Q92504)", "sequence (Q92504 whole entry)": "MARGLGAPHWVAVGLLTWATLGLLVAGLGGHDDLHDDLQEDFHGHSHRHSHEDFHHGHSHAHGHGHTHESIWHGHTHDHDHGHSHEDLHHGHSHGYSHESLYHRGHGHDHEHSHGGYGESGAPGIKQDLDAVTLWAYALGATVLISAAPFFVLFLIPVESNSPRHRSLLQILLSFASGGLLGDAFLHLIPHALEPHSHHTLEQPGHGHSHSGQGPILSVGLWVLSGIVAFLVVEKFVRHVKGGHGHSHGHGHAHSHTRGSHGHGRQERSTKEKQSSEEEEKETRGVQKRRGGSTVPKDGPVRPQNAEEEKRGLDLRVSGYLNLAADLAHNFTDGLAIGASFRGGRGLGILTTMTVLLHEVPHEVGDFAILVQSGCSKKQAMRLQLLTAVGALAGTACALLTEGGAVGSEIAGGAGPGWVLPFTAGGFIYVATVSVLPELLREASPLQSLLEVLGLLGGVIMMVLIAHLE", "assay": "Affinity On-target Cellular interaction: (HES-LUC reporter gene assay, U2OS cells) EUB0002669a SLC39A7", "assay_type": "functional, cell-based"}, "[8]": {"biological_target": "T3, Monocarboxylate transporter 4 (Homo sapiens, UniProt O15427)", "T3 sequence (O15427 whole entry)": "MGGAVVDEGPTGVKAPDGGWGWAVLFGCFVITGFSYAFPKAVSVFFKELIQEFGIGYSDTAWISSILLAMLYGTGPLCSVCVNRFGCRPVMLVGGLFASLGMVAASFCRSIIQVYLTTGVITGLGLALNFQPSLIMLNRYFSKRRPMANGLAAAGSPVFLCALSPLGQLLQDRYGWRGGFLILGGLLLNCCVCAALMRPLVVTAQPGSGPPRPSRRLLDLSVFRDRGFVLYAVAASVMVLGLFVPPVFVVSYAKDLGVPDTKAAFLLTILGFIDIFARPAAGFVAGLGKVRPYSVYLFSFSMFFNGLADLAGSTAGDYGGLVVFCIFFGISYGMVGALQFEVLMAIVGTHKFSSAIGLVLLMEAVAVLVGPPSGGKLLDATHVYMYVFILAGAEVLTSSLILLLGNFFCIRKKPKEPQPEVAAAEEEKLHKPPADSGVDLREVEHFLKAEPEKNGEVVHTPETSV", "assay": "(§2) Affinity On-target Cellular interaction: (Inhibition of lactate import in MDA-MB-231 cells) EUB0002761a SLC16A3", "assay_type": "functional, cell-based"}, "[9]": {"biological_target": "T3, Monocarboxylate transporter 4", "assay": "as §2", "assay_type": "functional, cell-based", "remark": "listed apart in the source"}, "[10]": {"biological_target": "Sodium/hydrogen exchanger 3 (Homo sapiens, UniProt P48764)", "sequence (P48764 whole entry)": "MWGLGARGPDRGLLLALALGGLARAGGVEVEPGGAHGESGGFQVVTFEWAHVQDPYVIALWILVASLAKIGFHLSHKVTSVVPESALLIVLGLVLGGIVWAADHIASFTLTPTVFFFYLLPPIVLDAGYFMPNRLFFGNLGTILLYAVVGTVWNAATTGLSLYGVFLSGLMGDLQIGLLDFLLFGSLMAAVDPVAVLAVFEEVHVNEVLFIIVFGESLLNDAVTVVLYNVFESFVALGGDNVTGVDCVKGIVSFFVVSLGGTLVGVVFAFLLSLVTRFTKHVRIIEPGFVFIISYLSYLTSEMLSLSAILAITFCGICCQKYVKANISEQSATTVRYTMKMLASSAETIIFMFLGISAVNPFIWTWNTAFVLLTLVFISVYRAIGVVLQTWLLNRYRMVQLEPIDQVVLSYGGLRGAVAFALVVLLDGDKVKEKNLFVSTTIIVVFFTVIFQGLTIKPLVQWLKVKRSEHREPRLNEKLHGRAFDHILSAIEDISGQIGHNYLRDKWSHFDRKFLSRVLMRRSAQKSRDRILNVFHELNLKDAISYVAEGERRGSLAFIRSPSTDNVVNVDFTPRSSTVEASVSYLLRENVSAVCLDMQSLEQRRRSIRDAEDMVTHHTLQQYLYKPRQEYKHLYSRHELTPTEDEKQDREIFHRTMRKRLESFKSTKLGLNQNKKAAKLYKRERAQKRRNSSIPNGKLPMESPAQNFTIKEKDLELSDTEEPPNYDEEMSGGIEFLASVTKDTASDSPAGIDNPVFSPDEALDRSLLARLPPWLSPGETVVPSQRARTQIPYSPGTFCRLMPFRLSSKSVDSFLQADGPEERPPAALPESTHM", "assay": "Affinity On-target Cellular interaction: (Inhibition of Na+/H+ exchange, detection of fluorescence changes in acridine orange pH indicator, mouse fibroblast L cell line) EUB0002709aCl SLC9A3", "assay_type": "functional, cell-based, LAP1"}},
  "note": "pIC50, pKi: −log10 of the molar value.",
  "data": [
    {"smiles": "O=C(NCc1ccc(Cl)cc1)C1CCN(S(=O)(=O)c2cc(Cl)cc(Cl)c2)CC1", "values": [
      {"measurement": "pIC50", "setting": "[1]", "value": "< 4.00"}
    ]},
    {"smiles": "CCCCCCCCCCCCC/C=C/[C@@H](O)[C@H](CO)NC(=O)CCl", "values": [
      {"measurement": "pKi", "setting": "Acid ceramidase [2]", "value": 7.40}
    ]},
    {"smiles": "N=C(N)NC(=O)c1cnn(-c2cccc3ncccc23)c1C1CC1", "values": [
      {"measurement": "pIC50", "setting": "[3]", "value": 7.85}
    ]},
    {"smiles": "COc1cc([C@@H]2Oc3c(O)cc([C@H]4Oc5cc(O)cc(O)c5C(=O)[C@@H]4O)cc3[C@H]2CO)ccc1O", "note": "[SILICRISTIN A]", "values": [
      {"measurement": "pIC50", "setting": "[4]", "value": 6.96}
    ]},
    {"smiles": "CCCCCCCCCCCCC/C=C/[C@@H](O)[C@H](CO)NC(=O)CBr", "values": [
      {"measurement": "pKi", "setting": "Acid ceramidase [5]", "value": 7.53}
    ]},
    {"smiles": "N[C@@H](CCNCc1ccc(Cl)cc1)C(=O)N1CCCCC1", "values": [
      {"measurement": "pIC50", "setting": "Dipeptidyl peptidase 2 [6]", "value": 9.85},
      {"measurement": "pIC50", "setting": "Dipeptidyl peptidase 2 [7]", "value": 9.68}
    ]},
    {"smiles": "O=C1Nc2ccccc2C2(CCN(CC(Cc3ccccc3)Nc3nc4ccc(F)cc4s3)CC2)N1", "note": "(stereo unspecified)", "values": [
      {"measurement": "pIC50", "setting": "Zinc transporter SLC39A7", "value": 6.89}
    ]},
    {"smiles": "CC(C)(OCc1cc(-c2cccc(OC3CC3)c2)n(-c2ccccc2Cl)n1)C(=O)O", "values": [
      {"measurement": "pIC50", "setting": "[8]", "value": 7.72},
      {"measurement": "pIC50", "setting": "[9]", "value": 8.07}
    ]},
    {"smiles": "CC(=Cc1cc(C)ccc1C=C(C)C(=O)NC(=N)N)C(=O)N=C(N)N", "values": [
      {"measurement": "pIC50", "setting": "[10]", "value": 7.70}
    ]}
  ]
}
